Data as given in patent publication US20230357301A1, “HEXOSE DERIVATIVES, PREPARATION AND USES THEREOF” (Faculdade de Ciencias da Universidade de Lisboa, priority 2014, published 2023).

Experiments:
lysozyme = molecular target: T1, lysozyme (Gallus gallus, UniProt P00698); assay: DSF thermal stability assay, lysozyme; design: species or system hen
T1 construct: hen egg white lysozyme was purchased from Sigma-Aldrich; purchased Sigma-Aldrich; host or cells: hen egg white
Experimental: The DSF based stability assays were performed at each protein working pH and the melting temperatures (TM) values determined in the absence (control experiments) and in the presence of solutes, and at different solute concentrations. The denaturation curves for each assay were analysed, and the melting temperatures determined by the calculation of the first derivative, which corresponds to the midpoint temperature of the protein-unfolding transition. […] The unfolding temperature shifts (ΔTM) were calculated by comparing the TM values obtained in the presence of solutes with the TM values of the control experiments (absence of solutes).
Mitochondrial malate dehydrogenase from pig heart (MDII) was purchased from Roche, and hen egg white lysozyme was purchased from Sigma-Aldrich. These enzymes were used without further purification.
The protein melting temperature (TM) determination was performed by monitoring protein unfolding with the fluoroprobe SYPRO Orange dye (Molecular Probes), which although completely quenched in aqueous environment, emits fluorescence upon binding to protein hydrophobic patches. Such increase in fluorescence can be measured as a function of temperature using Differential Scanning Fluorimetry. In a typical assay with a total volume of 20 µL, a protein concentration from 0.14 to 0.21 mg/mL, and a dye concentration of 5 fold were used to guarantee the best signal to noise ratio. Protein stock solutions of SNase or MDH were prepared in phosphate buffer (20 mM of sodium phosphate, pH 7.6), and lysozyme was prepared in citrate buffer (40 mM sodium citrate, 110 mM NaCl, pH 6.0). These stock solutions were extensively dialyzed against the same buffer before the assays. […] Solute solutions were prepared in water with the respective concentrations. […] Fluorescence intensities versus temperature are used to calculate the protein melting temperature (TM) by determining the first derivative (d(Rfu)/dT) to extract the exact transition inflection point.

[1] = molecular target: T2, staphylococcal nuclease (SNase) (Staphylococcus aureus, UniProt P00644); assay: DSF thermal stability assay, staphylococcal nuclease; conditions: solute 0.1, 0.25 and 0.5 M (FIG. 8)
T2 construct: Recombinant staphylococcal nuclease A (SNase) was produced and purified from Escherichia coli cells; made in house; host or cells: Escherichia coli
Experimental: (§1) The DSF based stability assays were performed at each protein working pH and the melting temperatures (TM) values determined in the absence (control experiments) and in the presence of solutes, and at different solute concentrations. The denaturation curves for each assay were analysed, and the melting temperatures determined by the calculation of the first derivative, which corresponds to the midpoint temperature of the protein-unfolding transition. In the absence of solutes, malate dehydrogenase (MDH), staphylococcal nuclease (SNase) and lysozyme have melting temperatures (TM) of 50, 52 and 71° C. respectively. The unfolding temperature shifts (ΔTM) were calculated by comparing the TM values obtained in the presence of solutes with the TM values of the control experiments (absence of solutes).
(§2) Mannosylglycerate (MG), glucosylglycerate (GG), glucosylglucosylglycerate (GGG), mannosyl glycolate (MGly) and mannosyl lactate (ML) were obtained by chemical synthesis as described in literature (Costa 1998). New synthetic compounds were obtained by chemical synthesis as described in Example 1. […] Purity and concentration of the compounds was assessed by ^1H NMR spectra obtained at 500 MHz spectrometer in D2O. For quantification purposes, spectra were acquired with a repetition delay of 60 s with formate as concentration standard. […]

porcine insulin = molecular target: T3, porcine insulin (Sus scrofa, UniProt P01315); assay: DSF thermal stability assay, porcine insulin; conditions: insulin 129 µM, solute 0.1 and 0.25 M (FIG. 11)
T3 construct: solutions comprising porcine insulin at a concentration of 129 µM
T3 sequence (P01315 25-54 limits assumed): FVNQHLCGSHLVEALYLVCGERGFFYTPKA
T3 sequence (P01315 88-108 limits assumed): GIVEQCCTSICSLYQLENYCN

[2] = molecular target: T4, malate dehydrogenase (MDH) (Sus scrofa, UniProt P00346); assay: DSF thermal stability assay, malate dehydrogenase; design: species or system pig; conditions: solute 0.1, 0.25 and 0.5 M (FIG. 9)
T4 construct: Mitochondrial malate dehydrogenase from pig heart (MDII) was purchased from Roche; purchased Roche; host or cells: pig heart
T4 sequence (P00346 25-338): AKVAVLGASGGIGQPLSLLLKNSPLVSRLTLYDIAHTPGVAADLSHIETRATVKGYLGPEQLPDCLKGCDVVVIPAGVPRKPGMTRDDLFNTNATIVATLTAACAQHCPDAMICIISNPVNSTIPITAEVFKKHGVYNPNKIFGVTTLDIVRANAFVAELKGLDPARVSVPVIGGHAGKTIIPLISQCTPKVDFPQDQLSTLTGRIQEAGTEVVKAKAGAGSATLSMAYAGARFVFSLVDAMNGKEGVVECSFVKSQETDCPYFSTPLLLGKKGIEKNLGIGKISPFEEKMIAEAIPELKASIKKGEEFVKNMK
Experimental: as §1, §2

T1 sequence (P00698 19-147): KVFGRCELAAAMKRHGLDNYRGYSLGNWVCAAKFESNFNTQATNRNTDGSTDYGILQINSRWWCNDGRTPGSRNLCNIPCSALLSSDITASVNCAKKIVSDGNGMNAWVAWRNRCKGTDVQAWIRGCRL

Potassium (2S) -2-0- (α/β-D-galactopyranosyl)-2-hydroxysuccinate [α-galactosyl malate]
dependence of lysozyme melting temperature on the concentration of solutes (lysozyme; solute 0.1, 0.25 and 0.5 M (FIG. 10)): clearly the best stabiliser | dependence of SNase melting temperature on the concentration of solutes [1]: clearly the best stabiliser

CC(=O)[O-].[K+] [AcOK, potassium acetate]
stabilising effect of AcOK alone on lysozyme (lysozyme; AcOK alone, concentration dependence (FIG. 6)): not a good stabiliser, stabilising only at high salt concentrations | stabilising effect of AcOK on lysozyme in conjugation with hypersolutes (lysozyme; AcOK with hypersolutes (0.5 M) (FIG. 6)): able to enhance their stabilisation properties

O=C([O-])COC1O[C@H](CO)[C@@H](O)[C@H](O)[C@H]1O.[K+] (stereo partly drawn) [glucosyl glycolate, Potassium 2-(α/β-D-glucopyranosyl) acetate]
increment in melting temperature of porcine insulin (porcine insulin): highest increases in melting temperature

Potassium (2S)-2-O-(α/β-D-glucopyranosyl)-2-hydroxysuccinate [glucosyl malate]
dependence of MDH melting temperature on the concentration of solutes [2]: the best stabiliser | increment in melting temperature of porcine insulin (porcine insulin): highest increases in melting temperature
